Values quoted from earlier work, collected in patent US10863763B2, “Prebiotic compositions and uses thereof” (priority 2013, dated 2020).
Like-named read-outs stand apart in the source and are kept apart here.

Legend:
[1] = meta-analysis, 10 trials, n=489; 95% CI 1.8, 0.4
[2] = in vivo
[3] = test system: lactobacilli and bifidobacteria in the faeces; settings: 4.5 g/d for 21 d; healthy and constipated adults
[4] = not given; remark: listed apart in the source
[5] = in vivo; remark: listed apart in the source
[6] = enriched cereal bars, 2 day test period
[7] = 50% of patty fat replaced, v full fat patty
[8] = not given; remark: listed apart in the source
[9] = 4 h 15 min after administration; 58 normal to slightly overweight women
[10] = not given; remark: listed apart in the source
[11] = heating at high temperatures for 60 min
[12] = not given; remark: listed apart in the source
[13] = 16 g/d × 2 wk v maltodextrin placebo
[14] = 21 g/d, 3 months; BMI >25 kg/m2, n=48; relative to maltodextrin control
[15] = test system: anorexic gut peptides (GLP-1 & PYY); settings: after 2 weeks of supplementation, relative to maltodextrin placebo
[16] = 8 g/d for 12 months; adolescents, n=97; placebo 1.2
[17] = 11 RCT, overweight and obese adults
[18] = low pH alone or Maillard reaction conditions

Molecule: chromium picolinate
- weighted mean difference in weight in favour of chromium picolinate over placebo [1]: 1.1 kg

Molecule: glucomannan
- safety in toxicological and genotoxicity studies [2]: safe
- weight loss (9 RCT, n=379, trials averaging 5.2 weeks, 95% CI −1.53, −0.05, 1.24 to 15.1 g/d): 0.79 kg
- weight change in the 3 studies supplying glucomannan in biscuits or granola bars (biscuits or granola bars): failed to report any significant weight change
- weight loss in obese subjects (mean) (obese subjects): −1.30 (−1.69, −0.91) kg
- SOFA fatty acid concentrations in the faeces [3]: increased
- proportion of lactobacilli and bifidobacteria in the faeces [3]: increased

Molecule: [Cr] [chromium]
- mean difference in weight in favour of chromium over placebo ([4]; 11 RCT, n=866, 95% CI −0.96, −0.03, 137 to 1000 μg/d): -0.5 kg
- BMI or waist to hip circumference [4, 17]: no effect
- percentage body fat [4, 17]: modest reduction
- adverse effects in participants ([4]; disappeared on withdrawal, reappeared on reintroduction): watery stools, vertigo, weakness, nausea, vomiting, dizziness and headaches
- adverse effects reported by other authors [5]: constipation, decreased appetite and urticaria

Molecule: β-glucan [reference compound]
- energy intake or any of the 6 subjective ratings of hunger between treatments [6]: no difference

Molecule: inulin
- energy intake or any of the 6 subjective ratings of hunger between treatments [6]: no difference
- measures of satiety [7]: no effect
- total fat intake and total energy intake on the test day ([7]; 33 males): lower
- treatment-related toxicity, genotoxicity or carcinogenicity ([8]; animal studies and clinical trial reports): no evidence
- detrimental effects on mineral absorption, lipid metabolism or glycaemic control ([8]; in vivo): failed to find evidence
- decrease in energy intake at an ad libitum lunch [9]: 89.84 kcal
- prebiotic activity ([10]; heating at low pH): reduced
- prebiotic activity [10, 18]: stable
- degradation to di-D-fructose dianhydrides [11]: substantial degradation

Molecule: short chain FOS [scFOS]
- measures of satiety at breakfast or lunch and food intake during an ad libitum lunch ([12]; two separate doses of 0, 5 and 8 g): failed to alter
- energy intake over the remainder of the day ([12]; women consuming the 16 g dose): significantly lower

Molecule: fructooligosaccharides [FOS]
- fullness at dinner [13]: increased
- prospective food intake at dinner [13]: decreased
- reduction in total energy intake over a 24 hour test period [13]: 5%
- satiety at breakfast and dinner [13]: significantly increased
- weight change [14]: −1.03 (SD 0.43) kg
- detrimental effects on mineral absorption, lipid metabolism or glycaemic control ([8]; in vivo): failed to find evidence
- single dose at which GI adverse effects (bloating, flatulence and diarrhoea) become evident ([8]; in vivo): > 20 g/day
- treatment-related toxicity, genotoxicity or carcinogenicity ([8]; in vivo): no evidence
- release of anorexic gut peptides (GLP-1 & PYY) in response to a test meal [15]: minor transient increases
- prebiotic activity ([10]; heating at low pH): reduced
- prebiotic activity [10, 18]: stable
- increase in BMI over 12 months [16]: 0.7 kg/m2
